Measurements published in ChEMBL document CHEMBL1130481, “Structure-activity relationships of carbocyclic influenza neuraminidase inhibitors” (Bioorg Med Chem Lett, 1997).

Columns and labels:
[1] = tested on: unidentified influenza virus; assay: Concentration required for 50% inhibition of influenza A/WS/33 by plaque reduction assay; type: functional, organism-based
[2] = molecular target: Neuraminidase (Influenza A virus (A/Puerto Rico/8/1934(H1N1)), UniProt P03468); assay: Inhibition of neuraminidase of influenza A/PR/8/34(H1N1)
Neuraminidase (Influenza A virus (A/Puerto Rico/8/1934(H1N1)), UniProt P03468), sequence (P03468 whole entry): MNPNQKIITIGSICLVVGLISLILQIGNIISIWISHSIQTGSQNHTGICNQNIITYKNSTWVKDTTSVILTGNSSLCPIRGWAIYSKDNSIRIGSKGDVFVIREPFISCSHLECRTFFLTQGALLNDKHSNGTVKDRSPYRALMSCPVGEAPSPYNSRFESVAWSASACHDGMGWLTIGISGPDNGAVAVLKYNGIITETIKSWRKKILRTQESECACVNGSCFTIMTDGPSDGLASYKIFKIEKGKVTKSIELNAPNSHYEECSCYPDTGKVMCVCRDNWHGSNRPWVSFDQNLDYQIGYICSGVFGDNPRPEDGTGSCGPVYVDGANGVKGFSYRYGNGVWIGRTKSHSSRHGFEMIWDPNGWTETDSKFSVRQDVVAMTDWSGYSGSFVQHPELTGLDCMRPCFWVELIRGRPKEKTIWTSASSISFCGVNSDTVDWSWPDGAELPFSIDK

Row | Compound | IC50 [1] [µM] | IC50 [2] [nM]
1 | CCCO[C@@H]1C=C(C(=O)O)C[C@H](N)[C@H]1NC(C)=O | 44 | 130
2 | CC(=O)N[C@@H]1[C@@H](N)CC(C(=O)O)=C[C@H]1OC1CCCCC1 | – | 60
3 | CC(=O)N[C@@H]1[C@@H](N)CC(C(=O)O)=C[C@H]1OCCC(F)(F)F | – | 225
4 | CC(=O)N[C@@H]1[C@@H](N)CC(C(=O)O)=C[C@H]1Oc1ccccc1 | – | 530
5 | CC(=O)N[C@@H]1[C@@H](N)CC(C(=O)O)=C[C@H]1OC1CCCC1 | – | 22
6 | CCCO[C@@H]1C=C(C(=O)O)C[C@H](N=C(N)NC)[C@H]1NC(C)=O | 0.0016 | 4.6
7 | C=CCO[C@@H]1C=C(C(=O)O)C[C@H](N)[C@H]1NC(C)=O | – | 2200
8 | CCCO[C@@H]1C=C(C(=O)O)C[C@H](N)[C@H]1NS(C)(=O)=O | – | 25000
9 | CCCO[C@@H]1C=C(C(=O)O)C[C@H](NC=N)[C@H]1NC(C)=O | – | 140
10 | CCCO[C@@H]1C=C(C(=O)O)C[C@H](N)[C@H]1NC(=O)CC | – | 1500
11 | CCCO[C@@H]1C=C(C(=O)O)C[C@H](N)[C@H]1NC(=O)C(F)(F)F | 22 | 1400
12 | COCO[C@@H]1C=C(C(=O)O)C[C@H](N)[C@H]1NC(C)=O | – | 2000
13 | CCCO[C@@H]1C=C(C(=O)O)C[C@H](N=C(N)N)[C@H]1NC(C)=O | 0.044 | 1.8
